As usually defined, the CC50 is the concentration at which the toxic effect on the cells reaches its halfway point. High values mean better tolerance by the cells, low ones harm at low concentration. A word on the melting point: it is the temperature of the solid-liquid transition.

Data set [1] can be described thus: HEK293 cytotoxicity assay (resazurin). Format: cell-based, human. To be noted: human; concentration at 50% cytotoxicity on HEK293 cells; mean (n = 2). How it is done:
(§1) For the HEK293 cytotoxicity assay, cells were counted manually in a Neubauer hemocytometer and plated at a density of 5000 cells/well into each well of the 384-well plates containing the 25× (2 μL) concentrated compounds. The medium used was Dulbecco’s modified eagle medium (DMEM) supplemented with 10% fetal bovine serum (FBS). Cells were incubated together with the compounds for 20 h at 37 °C, 5% CO2. To measure cytotoxicity, 5 μL (equals 100 μM final) of resazurin was added to each well after incubation, and incubated for further 3 h at 37 °C with 5% CO2. After final incubation fluorescence intensity was measured as Fex 560/10 nm, em 590/10 nm (F560/590) using a Tecan M1000 Pro monochromator plate reader. CC50 values (concentration at 50% cytotoxicity) were calculated by normalizing the fluorescence readout, with 74 μg/mL tamoxifen as negative control (0%) and normal cell growth as positive control (100%). The concentration-dependent percentage cytotoxicity was fitted to a dose response function (using Pipeline Pilot) and CC50 values determined.

For data set [2], the system named is HEK293 human embryonic kidney cells. Description: HEK293 cytotoxicity assay (resazurin). The note with it: HEK293; result in words. The class given is cell-based. How it is done: as §1
On the technique in general: Resazurin is reduced to fluorescent resorufin, in cell work by metabolically active cells.

For data set [3], the system named is Staphylococcus aureus ATCC25923. Description: MIC by broth dilution, S. aureus ATCC25923. Format: cell-based. The note with it: Staphylococcus aureus ATCC25923; mean (n = 3). How it is done:
The susceptibility of S. aureus (ATCC25923) to antibiotics and compounds was determined in microplates using the standard broth dilution method in accordance with the recommendations of the Comité de l’AntibioGramme de la Société Française de Microbiologie (CA-SFM) as previously described. Briefly, the minimal inhibitory concentrations (MICs) were determined with an inoculum of 10^5 CFU in 200 µL of Mueller-Hinton broth (MHB) containing two-fold serial dilutions of each drug. […] To determine all MICs, the measurements were independently repeated in triplicate.

Data set [4] concerns Staphylococcus aureus ATCC43300 (MRSA). Description: MIC, MRSA ATCC43300 (CO-ADD protocol). The note with it: for anti-MRSA activity (in words): result in words; for MIC: Staphylococcus aureus, Staphylococcus aureus ATCC43300 (MRSA), mean (n = 2), read-out: MIC (µg/mL) MRSA. Format: cell-based. The source says:
Additional antimicrobial evaluation against Staphylococcus aureus MRSA (ATCC43300), Pseudomonas aeruginosa (ATCC27853), Escherichia coli (ATCC25922), Klebsiella pneumoniae (ATCC700603), Acinetobacter baumannii (ATCC19606), Candida albicans (ATCC90028), and Cryptococcus neoformans (ATCC208821) was undertaken at the Community for Open Antimicrobial Drug Discovery at The University of Queensland (Australia) according to their standard protocols. For antimicrobial assays, the tested strains were cultured in either Luria broth (LB) (In Vitro Technologies, USB75852, Noble Park North, Australia), nutrient broth (NB) (Becton Dickson, 234000, Macquarie Park, Australia), or cation-adjusted MHB at 37 °C overnight. A sample of culture was then diluted 40-fold in fresh MHB and incubated at 37 °C for 1.5−2 h. The compounds were serially diluted 2-fold across the wells of 96-well plates (Corning 3641, Tewksbury, MA, USA, nonbinding surface), with compound concentrations ranging from 0.015 to 64 μg/mL, plated in duplicate. The resultant mid log phase cultures were diluted to the final concentration of 1 × 10^6 CFU/mL; then, 50 μL was added to each well of the compound containing plates giving a final compound concentration range of 0.008 to 32 μg/mL and a cell density of 5 × 10^5 CFU/mL. All plates were then covered and incubated at 37 °C for 18 h. Resazurin was added at 0.001% final concentration to each well and incubated for 2 h before MICs were read by eye.
(§2) Colistin and vancomycin were used as positive bacterial inhibitor standards for Gram-negative and Gram-positive bacteria, respectively. Fluconazole was used as a positive fungal inhibitor standard for C. albicans and C. neoformans. The antibiotics were provided in 4 concentrations, with 2 above and 2 below its MIC value, and plated into the first 8 wells of column 23 of the 384-well NBS plates. The quality control (QC) of the assays was determined by the antimicrobial controls and the Z′-factor (using positive and negative controls).

Another data set deals with human red blood cells. The data set is described as follows: Hemolytic assay. The class given is cell-based. To be noted: for HC10: concentration at 10% hemolytic activity on human red blood cells, mean (n = 2); for hemolytic activity (in words): human red blood cells, result in words. How it is done:
Human whole blood was washed three times with 3 volumes of 0.9% NaCl and then resuspended in same to a concentration of 0.5 × 10^8 cells/mL, as determined by manual cell count in a Neubauer hemocytometer. The washed cells were then added to the 384-well compound-containing plates for a final volume of 50 μL. After a 10 min shake on a plate shaker the plates were then incubated for 1 h at 37 °C. After incubation, the plates were centrifuged at 1000 g for 10 min to pellet cells and debris, 25 μL of the supernatant was then transferred to a polystyrene 384-well assay plate. Hemolysis was determined by measuring the supernatant absorbance at […] (OD405). The absorbance was measured using a Tecan M1000 Pro monochromator plate reader. HC10 and HC50 (concentration at 10% and 50% hemolysis, respectively) were calculated by curve fitting the inhibition values vs. log(concentration) using a sigmoidal dose–response function with variable fitting values for top, bottom and slope.

The test system of data set [5] is Cryptococcus neoformans ATCC208821. The data set is described as follows: Antifungal MIC, C. neoformans. The class given is cell-based. The note with it: for MIC: Cryptococcus neoformans ATCC208821, mean (n = 2); for antifungal activity towards C. neoformans (in words): result in words. How it is done: For the antifungal assay, fungi strains were cultured for 3 days on yeast extract-peptone dextrose (YPD) agar at 30 °C. A yeast suspension of 1 × 10^6 to 5 × 10^6 CFU/mL was prepared from five colonies. These stock suspensions were diluted with yeast nitrogen base (YNB) (Becton Dickinson, 233520) broth to a final concentration of 2.5 × 10^3 CFU/mL. The compounds were serially diluted 2-fold across the wells of 96-well plates (Corning 3641, nonbinding surface), with compound concentrations ranging from 0.015 to 64 μg/mL and final volumes of 50 μL, plated in duplicate. Then, 50 μL of the fungi suspension that was previously prepared in YNB broth to the final concentration of 2.5 × 10^3 CFU/mL was added to each well of the compound-containing plates, giving a final compound concentration range of 0.008 to 32 μg/mL. Plates were covered and incubated at 35 °C for 36 h without shaking. C. albicans MICs were determined by measuring the absorbance at OD530. For C. neoformans, resazurin was added at 0.006% final concentration to each well and incubated for a further 3 h before MICs were determined by measuring the absorbance at OD570–600.
as §2

SMILES strings stand for the structures. Converted amounts (≈) assume the structure as drawn. “Also recorded” adds a separate entry of the source.

In data set [1], `COc1ccc(OC)c(CCn2cncc2-c2c[nH]c3ccc(Cl)cc23)c1` [Compound 32, 5-Chloro-3-(1-(2,5-dimethoxyphenethyl)-1H-imidazol-5-yl)-1H-indole] came in with a 50% cytotoxic concentration (CC50) at 20 h above 32 µg/mL. The “cytotoxicity (in words)” value in data set [2] is “lack of cytotoxicity; also recorded: lacked cytotoxic or hemolytic properties”. The same compound returned an MIC in data set [3] of 100 µg/mL (≈ 262 µM). In data set [4], the “anti-MRSA activity (in words)” value was “promising non-toxic selective anti-MRSA compounds”. In the data set on human red blood cells, the “HC10” value is given as above 32 µg/mL and the “hemolytic activity (in words)” value is “lacked cytotoxic or hemolytic properties”. In data set [5], this compound displayed an MIC above 32 µg/mL.

Turning to `COc1ccc2c(-c3cncn3CCc3ccccc3)c[nH]c2c1` [Compound 57, 6-Methoxy-3-(1-phenethyl-1H-imidazol-5-yl)-1H-indole], the melting point was in the range of 48 to 49 °C. Moreover, the CC50 at 20 h in data set [1] is above 32 µg/mL. Moreover, the “cytotoxicity (in words)” value in data set [2] is “lack of cytotoxicity and hemolytic activity”. The compound further had an MIC in data set [3] above 200 µg/mL. For the same compound, the MIC in data set [4] was above 32 µg/mL. In the data set on human red blood cells, the “HC10” value is above 32 µg/mL; the “hemolytic activity (in words)” value was “lack of cytotoxicity and hemolytic activity”. Besides, in data set [5], the MIC was at most 0.25 µg/mL and the “antifungal activity towards C. neoformans (in words)” value is recorded as “non-toxic selective antifungals”.

`COc1ccc(CCn2cncc2-c2c[nH]c3cc(Cl)ccc23)cc1` [Compound 2, 6-Chloro-3-(1-(4-methoxyphenethyl)-1H-imidazol-5-yl)-1H-indole] returned a melting point of 165 to 166 °C. The same compound returned a CC50 at 20 h in data set [1] of 22.5 µg/mL (≈ 64 µM). The compound also registered an MIC in data set [3] above 200 µg/mL. Further, in data set [4], the MIC stood at 16 µg/mL (≈ 45.5 µM). Further, the “HC10” value with human red blood cells is above 32 µg/mL. In data set [5], this compound registered an MIC of 32 µg/mL (≈ 91 µM).

For `COc1ccc(CCn2cncc2-c2c[nH]c3ccccc23)cc1` [Compound 23, 3-(1-(4-Methoxyphenethyl)-1H-imidazol-5-yl)-1H-indole], the melting point was 158 to 159 °C. The compound also came in with a CC50 at 20 h in data set [1] of 24.5 µg/mL (≈ 77.2 µM). For the same compound, the MIC in data set [3] was determined as 100 µg/mL (≈ 315 µM). For the same compound, the MIC in data set [4] came to 32 µg/mL (≈ 101 µM). In the data set on human red blood cells, the “HC10” value is listed as above 32 µg/mL. The same compound yielded an MIC in data set [5] above 32 µg/mL.

`COc1ccc(Cn2cncc2-c2c[nH]c3cc(Br)ccc23)cc1` [Compound 17, 6-Bromo-3-(1-(4-methoxybenzyl)-1H-imidazol-5-yl)-1H-indole] registered a melting point of 188 to 189 °C. Besides, half-maximal cytotoxicity in data set [1] (CC50 at 20 h) was put at 11.1 µg/mL (≈ 29 µM). The MIC in data set [3] turned out to be 25 µg/mL (≈ 65.4 µM). Also, the MIC in data set [4] turned out to be 32 µg/mL (≈ 83.7 µM). Further, the “HC10” value with human red blood cells is on record as above 32 µg/mL. For the same compound, in data set [5], the MIC turned out to be 32 µg/mL (≈ 83.7 µM).

Consider `COc1ccc(CCn2cncc2-c2c[nH]c3ccc(Br)cc23)cc1` [Compound 27, 5-Bromo-3-(1-(4-methoxyphenethyl)-1H-imidazol-5-yl)-1H-indole], for which the melting point fell in the range of 157 to 158 °C. Half-maximal cytotoxicity in data set [1] (CC50 at 20 h) was put at 16 µg/mL (≈ 40.4 µM). Also, in data set [3], the MIC turned out to be 12.5 µg/mL (≈ 31.5 µM). Besides, the MIC in data set [4] is 8 µg/mL (≈ 20.2 µM). In addition, in the data set on human red blood cells, the “HC10” value was above 32 µg/mL. Further, the MIC in data set [5] is above 32 µg/mL.

Take `c1ccc(-c2cncn2Cc2c[nH]c3ccccc23)cc1` [Compound 111, 3-((5-Phenyl-1H-imidazol-1-yl)methyl)-1H-indole]: the melting point is 57 to 58 °C. In data set [1], this compound showed a CC50 at 20 h above 32 µg/mL. Besides, the “cytotoxicity (in words)” value in data set [2] was “lack of cytotoxicity and hemolytic activity”. Moreover, the MIC in data set [3] stood at 50 µg/mL (≈ 183 µM). Also, the MIC in data set [4] was found to be 16 µg/mL (≈ 58.5 µM). Also, in the data set on human red blood cells, the “HC10” value is given as above 32 µg/mL; the “hemolytic activity (in words)” value was “lack of cytotoxicity and hemolytic activity”. In data set [5], the MIC is at most 0.25 µg/mL and the “antifungal activity towards C. neoformans (in words)” value is recorded as “non-toxic selective antifungals”.

`COc1ccc(CCn2cncc2-c2c[nH]c3ccc(Cl)cc23)cc1` [Compound 26, 5-Chloro-3-(1-(4-methoxyphenethyl)-1H-imidazol-5-yl)-1H-indole] returned a CC50 at 20 h in data set [1] above 32 µg/mL. The “cytotoxicity (in words)” value in data set [2] is listed as “lack of cytotoxicity; also recorded: lacked cytotoxic or hemolytic properties”. The same compound gave an MIC in data set [3] above 200 µg/mL. For the same compound, in data set [4], the MIC was at most 0.25 µg/mL and the “anti-MRSA activity (in words)” value is given as “promising non-toxic selective anti-MRSA compounds”. For the same compound, in the data set on human red blood cells, the “HC10” value is recorded as above 32 µg/mL and the “hemolytic activity (in words)” value is reported as “lacked cytotoxic or hemolytic properties”. Moreover, the MIC in data set [5] was above 32 µg/mL.

For the compound `Brc1ccc2[nH]cc(-c3cncn3Cc3ccc(I)cc3)c2c1` [Compound 9, 5-Bromo-3-(1-(4-iodobenzyl)-1H-imidazol-5-yl)-1H-indole], the melting point was above 200 °C. In data set [1], half-maximal cytotoxicity (CC50 at 20 h) was put at 5.1 µg/mL (≈ 10.7 µM). Besides, in data set [3], the MIC was above 200 µg/mL. The MIC in data set [4] is 16 µg/mL (≈ 33.5 µM). The “HC10” value in the data set on human red blood cells is above 32 µg/mL. Moreover, the MIC in data set [5] came out at 16 µg/mL (≈ 33.5 µM).

As to `c1ccc(CCn2cncc2-c2c[nH]c3ccccc23)cc1` [Compound 1, 3-(1-Phenethyl-1H-imidazol-5-yl)-1H-indole], the melting point lay in the range of 69 to 70 °C. This compound had a CC50 at 20 h in data set [1] of 19.3 µg/mL (≈ 67.2 µM). The same compound registered an MIC in data set [3] above 200 µg/mL. Besides, the MIC in data set [4] came to 16 µg/mL (≈ 55.7 µM). For the same compound, the “HC10” value with human red blood cells is on record as above 32 µg/mL. In data set [5], the MIC was above 32 µg/mL.

Values taken from PMC9598367, “Discovery and Preliminary Structure-Activity Investigation of 3-Substituted-1H-imidazol-5-yl-1H-indoles with In Vitro Activity towards Methicillin-Resistant Staphylococcus aureus” (Antibiotics, 2022).
